In brackets after ≈: the same amount, converted by molar mass.

In one series the test system is Acinetobacter baumannii. Description: Antibacterial activity against Acinetobacter baumannii NCTC 13420. The format is functional.
For the next series, the system named is Klebsiella pneumoniae. The series is described as follows: Antibacterial activity against Klebsiella pneumoniae ATCC 700603. The format is functional.
The next series concerns Pseudomonas aeruginosa. Description: Antibacterial activity against Pseudomonas aeruginosa ATCC 27853. The format is functional.
The next series concerns Staphylococcus aureus. Description: Antibacterial activity against Staphylococcus aureus ATCC 29213. The format is functional.
The test system of series [1] is Escherichia coli. The series is described as follows: Antibacterial activity against Escherichia coli W4573. The format is functional.
Series [2] relates to Escherichia coli. Description: Antibacterial activity against Escherichia coli N43. The format is functional.
For series [3], the system named is Escherichia coli. The series is described as follows: Antibacterial activity against wild type Escherichia coli LM179. The format is functional.
Series [4] relates to Escherichia coli. The series is described as follows: Antibacterial activity against Escherichia coli LM625 harboring GyrA S83L/D87N double mutant. The format is functional.
Series [5] deals with Escherichia coli. The series is described as follows: Antibacterial activity against Escherichia coli LM367 harboring delta marR/delta acrR double mutant. The format is functional.
Series [6] relates to Escherichia coli. The series is described as follows: Antibacterial activity against Escherichia coli LM693 harboring GyrA S83L/D87N double mutant/ParC S80I mutant. The format is functional.
The test system of series [7] is Escherichia coli. The series is described as follows: Antibacterial activity against Escherichia coli LM705 harboring GyrA S83L/D87N double mutant/ParC S80I mutant/delta marR/delta acrR double mutant. The format is functional.
For series [8], the system named is Escherichia coli. The series is described as follows: Antibacterial activity against Escherichia coli CH440 harboring GyrA S83L/D87N double mutant/ParC S80I E84V double mutant/aac(6')-lb-cr. The format is functional.
Series [9] has as its system Escherichia coli. The series is described as follows: Antibacterial activity against Escherichia coli CH460 harboring GyrA S83L/D87N double mutant/ParC S80I E84V double mutant/qepA. The format is functional.
Series [10] has as its system Escherichia coli. Description: Antibacterial activity against Escherichia coli CH418 harboring GyrA S83L/D87N double mutant/ParC S80I E84G double mutant/qnrA. The format is functional.
Series [11] concerns Escherichia coli. Description: Antibacterial activity against Escherichia coli CH448 harboring GyrA S83L mutant/qnrS. The format is functional.
The subject of series [12] is Escherichia coli. The series is described as follows: Selectivity ratio of MIC for Escherichia coli LM625 harboring GyrA S83L/D87N double mutant to MIC for wild type Escherichia coli LM179. The format is functional.
In series [13] the test system is Escherichia coli. Description: Selectivity ratio of MIC for Escherichia coli LM367 harboring delta marR/delta acrR double mutant to MIC for wild type Escherichia coli LM179. The format is functional.
The subject of series [14] is Escherichia coli. The series is described as follows: Selectivity ratio of MIC for Escherichia coli LM693 harboring GyrA S83L/D87N double mutant/ParC S80I mutant to MIC for wild type Escherichia coli LM179. The format is functional.
The subject of series [15] is Escherichia coli. The series is described as follows: Selectivity ratio of MIC for Escherichia coli LM705 harboring GyrA S83L/D87N double mutant/ParC S80I mutant/delta marR/delta acrR double mutant to MIC for wild type Escherichia coli LM179. The format is functional.
The test system of series [16] is Escherichia coli. Description: Selectivity ratio of MIC for Escherichia coli CH440 harboring GyrA S83L/D87N double mutant/ParC S80I E84V double mutant/aac(6')-lb-cr to MIC for wild type Escherichia coli LM179. The format is functional.
For series [17], the system named is Escherichia coli. The series is described as follows: Selectivity ratio of MIC for Escherichia coli CH460 harboring GyrA S83L/D87N double mutant/ParC S80I E84V double mutant/qepA to MIC for wild type Escherichia coli LM179. The format is functional.
Series [18] relates to Escherichia coli. The series is described as follows: Selectivity ratio of MIC for Escherichia coli CH418 harboring GyrA S83L/D87N double mutant/ParC S80I E84G double mutant/qnrA to MIC for wild type Escherichia coli LM179. The format is functional.
In series [19] the test system is Escherichia coli. Description: Selectivity ratio of MIC for Escherichia coli CH448 harboring GyrA S83L mutant/qnrS to MIC for wild type Escherichia coli LM179. The format is functional.
For another series, the system named is HepG2. Description: Cytotoxicity against human HepG2 cells after 24 hrs by cell titre-glo assay. The format is cell-based. The conditions noted are these: HepG2, 24 h.
Series [20] in a line: n-octanol/phosphate buffer partition coefficient, log D of compound at pH 7.4 by shake-flask assay. The format is physicochemical.
The target of a further series is hERG (KCNH2) (Homo sapiens, UniProt Q12809). The series is described as follows: Inhibition of human ERG channel at 100 uM by automated patch clamp assay. (In general: Patch clamp records ionic current or voltage across a cell membrane.)
hERG (KCNH2), sequence (Q12809 whole entry): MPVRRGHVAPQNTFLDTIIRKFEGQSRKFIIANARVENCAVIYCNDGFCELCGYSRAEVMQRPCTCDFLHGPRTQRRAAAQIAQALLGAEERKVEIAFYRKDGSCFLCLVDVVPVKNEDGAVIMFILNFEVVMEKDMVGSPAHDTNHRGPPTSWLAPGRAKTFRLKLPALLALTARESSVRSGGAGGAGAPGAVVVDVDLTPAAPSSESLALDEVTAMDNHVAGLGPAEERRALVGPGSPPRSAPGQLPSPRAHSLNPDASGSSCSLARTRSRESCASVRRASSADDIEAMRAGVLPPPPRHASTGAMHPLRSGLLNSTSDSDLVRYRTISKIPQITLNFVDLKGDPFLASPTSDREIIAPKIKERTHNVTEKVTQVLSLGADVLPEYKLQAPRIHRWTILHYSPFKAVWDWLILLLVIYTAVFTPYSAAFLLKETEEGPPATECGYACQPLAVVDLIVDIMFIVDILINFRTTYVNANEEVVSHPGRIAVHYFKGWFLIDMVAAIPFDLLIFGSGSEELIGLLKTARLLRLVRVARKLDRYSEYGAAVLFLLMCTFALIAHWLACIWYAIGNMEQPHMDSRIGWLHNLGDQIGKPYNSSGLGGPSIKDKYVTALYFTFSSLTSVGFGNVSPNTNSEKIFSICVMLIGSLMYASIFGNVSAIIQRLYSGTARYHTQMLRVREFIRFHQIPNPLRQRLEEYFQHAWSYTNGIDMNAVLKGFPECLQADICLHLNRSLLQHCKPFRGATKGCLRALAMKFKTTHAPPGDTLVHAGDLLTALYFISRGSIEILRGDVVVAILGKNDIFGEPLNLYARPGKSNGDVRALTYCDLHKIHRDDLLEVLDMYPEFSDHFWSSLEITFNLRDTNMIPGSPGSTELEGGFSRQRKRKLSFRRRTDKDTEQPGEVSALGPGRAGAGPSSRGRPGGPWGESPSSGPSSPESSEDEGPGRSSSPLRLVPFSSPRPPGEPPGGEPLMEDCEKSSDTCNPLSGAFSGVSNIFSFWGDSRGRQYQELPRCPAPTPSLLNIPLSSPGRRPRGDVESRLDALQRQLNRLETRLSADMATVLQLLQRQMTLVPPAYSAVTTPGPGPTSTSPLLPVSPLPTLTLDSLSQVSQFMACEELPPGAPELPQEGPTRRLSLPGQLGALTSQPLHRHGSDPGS

What is called MIC is the smallest concentration in the dilution series that meets the test's criterion for growth inhibition. Read a low MIC as inhibition by little substance. For `CCc1c(-c2ccc(N3CC[C@H](N(C)C)C3)cc2)[nH]c(=O)c2c(=O)[nH]sc12`, the MIC in the series with Acinetobacter baumannii amounted to 1 µg/mL (≈ 2.6 µM); with Klebsiella pneumoniae, 4 µg/mL (≈ 10.4 µM); against Pseudomonas aeruginosa, 1 µg/mL (≈ 2.6 µM); in the series on Staphylococcus aureus it was 0.5 µg/mL (≈ 1.3 µM); against Escherichia coli [1] it was 0.015 µg/mL (≈ 0.039 µM); with Escherichia coli [2] it was 0.001 µg/mL (≈ 0.0026 µM).
On to `CCc1c(-c2ccc(Cl)cc2)[nH]c(=O)c2c(=O)[nH]sc12`, for which the MIC in the series with Acinetobacter baumannii is 16 µg/mL (≈ 52.2 µM); with Klebsiella pneumoniae, 128 µg/mL (≈ 417 µM); against Pseudomonas aeruginosa, above 128 µg/mL; against Staphylococcus aureus it was 8 µg/mL (≈ 26.1 µM); against Escherichia coli [1] it was 16 µg/mL (≈ 52.2 µM); against Escherichia coli [2], 0.25 µg/mL (≈ 0.815 µM).
As for `CCc1c(-c2ccc(N3CCC(N)C3)cc2)[nH]c(=O)c2c(=O)[nH]sc12` (stereo not drawn), the MIC against Acinetobacter baumannii is 64 µg/mL (≈ 180 µM); in the series with Klebsiella pneumoniae it was 4 µg/mL (≈ 11.2 µM); in the series on Pseudomonas aeruginosa, 0.06 µg/mL (≈ 0.168 µM); against Staphylococcus aureus, 0.12 µg/mL (≈ 0.337 µM); against Escherichia coli [1], 0.002 µg/mL (≈ 0.00561 µM); in the series with Escherichia coli [2] it was at most 0.0001 µg/mL.
For the compound `CCc1c(-c2cccc(N3CCC(N(C)C)C3)c2)[nH]c(=O)c2c(=O)[nH]sc12` (stereo not drawn), the MIC with Acinetobacter baumannii was 64 µg/mL (≈ 166 µM); against Klebsiella pneumoniae it was above 128 µg/mL; with Pseudomonas aeruginosa it was above 128 µg/mL; in the series with Staphylococcus aureus it was 32 µg/mL (≈ 83.2 µM); against Escherichia coli [1], above 64 µg/mL; with Escherichia coli [2] it was 8 µg/mL (≈ 20.8 µM).
As for `CCc1c(-c2ccc3c(cnn3C)c2)[nH]c(=O)c2c(=O)[nH]sc12`, the MIC worked out at 0.5 µg/mL (≈ 1.53 µM) with Escherichia coli [3]; 8 µg/mL (≈ 24.5 µM) against Escherichia coli [4]; 2 µg/mL (≈ 6.13 µM) in the series on Acinetobacter baumannii; 16 µg/mL (≈ 49 µM) against Klebsiella pneumoniae; 4 µg/mL (≈ 12.3 µM) against Pseudomonas aeruginosa; 0.12 µg/mL (≈ 0.368 µM) against Staphylococcus aureus. Also, the MIC against Escherichia coli [1] is 0.5 µg/mL (≈ 1.53 µM); in the series with Escherichia coli [2], 0.004 µg/mL (≈ 0.0123 µM); in the series on Escherichia coli [5] it was 4 µg/mL (≈ 12.3 µM); in the series on Escherichia coli [6] it was 16 µg/mL (≈ 49 µM); in the series on Escherichia coli [7], above 64 µg/mL; with Escherichia coli [8], 16 µg/mL (≈ 49 µM). For the same compound, the MIC against Escherichia coli [9], in the series with Escherichia coli [10] and in the series on Escherichia coli [11] was 16 µg/mL (≈ 49 µM) each time. Also, the Selectivity ratio was 16 with Escherichia coli [12]; 8 in the series with Escherichia coli [13]; 32 in the series on Escherichia coli [14]; above 128 in the series on Escherichia coli [15]; 32 with Escherichia coli [16]; 32 in the series on Escherichia coli [17]. Moreover, the Selectivity ratio in the series on Escherichia coli [18] and in the series with Escherichia coli [19] was 32 each time.
Broadly, the IC50 is the concentration that gives 50% inhibition. The term logD denotes the decadic logarithm of the distribution of all forms, ionised or not, between an organic phase and buffer at a given pH. In general, inhibition refers to the share of the control response that was lost under treatment. A high value points to a response far below the control. As for `CCc1c(-c2ccc(N3CCC(NC)C3)cc2)[nH]c(=O)c2c(=O)[nH]sc12` (stereo not drawn), the MIC in the series with Acinetobacter baumannii amounted to 16 µg/mL (≈ 43.2 µM); in the series with Klebsiella pneumoniae it was 2 µg/mL (≈ 5.4 µM); in the series with Pseudomonas aeruginosa, 0.06 µg/mL (≈ 0.162 µM); against Staphylococcus aureus it was 0.12 µg/mL (≈ 0.324 µM); against Escherichia coli [1], 0.008 µg/mL (≈ 0.0216 µM); against Escherichia coli [2], 0.001 µg/mL (≈ 0.0027 µM). In the series on HepG2, this compound displayed an IC50 above 128 µg/mL. In [20], this compound yielded a logD of 1.2. For the same compound, the inhibition at 100 µM on hERG (KCNH2) was 34%.
In the case of `CCc1c(-c2cccc(N3CCC(NC)C3)c2)[nH]c(=O)c2c(=O)[nH]sc12` (stereo not drawn), the MIC against Acinetobacter baumannii is above 128 µg/mL; with Klebsiella pneumoniae it was above 128 µg/mL; with Pseudomonas aeruginosa, above 128 µg/mL; in the series with Staphylococcus aureus it was 32 µg/mL (≈ 86.4 µM).
On to `CCc1c(-c2ccc(N3CCC(F)(F)C3)cc2)[nH]c(=O)c2c(=O)[nH]sc12`, for which the MIC is above 64 µg/mL in the series with Acinetobacter baumannii; above 64 µg/mL in the series on Klebsiella pneumoniae; 4 µg/mL (≈ 10.6 µM) with Pseudomonas aeruginosa; 0.12 µg/mL (≈ 0.318 µM) in the series with Staphylococcus aureus; 0.5 µg/mL (≈ 1.32 µM) against Escherichia coli [1]; 0.12 µg/mL (≈ 0.318 µM) in the series on Escherichia coli [2].
With `CCc1c(-c2ccc(N3CCC(N(C)C)CC3)cc2)[nH]c(=O)c2c(=O)[nH]sc12`, the MIC was above 64 µg/mL against Acinetobacter baumannii; above 64 µg/mL with Klebsiella pneumoniae; 64 µg/mL (≈ 161 µM) with Pseudomonas aeruginosa; 16 µg/mL (≈ 40.1 µM) with Staphylococcus aureus; 16 µg/mL (≈ 40.1 µM) in the series on Escherichia coli [1]; 0.5 µg/mL (≈ 1.25 µM) in the series with Escherichia coli [2].
Regarding `CCc1c(-c2ccc(N3CCC(NC)CC3)cc2)[nH]c(=O)c2c(=O)[nH]sc12`, the MIC was above 64 µg/mL with Acinetobacter baumannii; above 64 µg/mL in the series on Klebsiella pneumoniae; 64 µg/mL (≈ 166 µM) in the series with Pseudomonas aeruginosa; 16 µg/mL (≈ 41.6 µM) against Staphylococcus aureus; 32 µg/mL (≈ 83.2 µM) in the series on Escherichia coli [1]; 1 µg/mL (≈ 2.6 µM) against Escherichia coli [2].

The values above are taken from ChEMBL document CHEMBL4477259, “Discovery and structure-activity relationships of a novel isothiazolone class of bacterial type II topoisomerase inhibitors” (Bioorg Med Chem Lett, 2016).
